Measurements taken from paper PMC4476725 (PLoS Pathogens, 2015).
Where two headings read alike, the source gives them in different places.

Assays:
Type in all cases: biochemical
RSV RNP complex = RSV RNP complex (Human respiratory syncytial virus A, UniProt P28887); assay: biochemical; conditions: for inhibition of RSV RNP complex (in words): Fig 5B; for IC50: first symbol of RSV / HCV, read-out: RSV polymerase inhibition class (IC50, RSV RNP complex)
HCV polymerase = HCV polymerase (Hepatitis C virus genotype 1b, UniProt Q9WMX2); assay: HCV polymerase inhibition assay; conditions: for IC50: second symbol of RSV / HCV, read-out: HCV polymerase inhibition class (IC50)
Sequence of HCV polymerase (Q9WMX2 2420-3010): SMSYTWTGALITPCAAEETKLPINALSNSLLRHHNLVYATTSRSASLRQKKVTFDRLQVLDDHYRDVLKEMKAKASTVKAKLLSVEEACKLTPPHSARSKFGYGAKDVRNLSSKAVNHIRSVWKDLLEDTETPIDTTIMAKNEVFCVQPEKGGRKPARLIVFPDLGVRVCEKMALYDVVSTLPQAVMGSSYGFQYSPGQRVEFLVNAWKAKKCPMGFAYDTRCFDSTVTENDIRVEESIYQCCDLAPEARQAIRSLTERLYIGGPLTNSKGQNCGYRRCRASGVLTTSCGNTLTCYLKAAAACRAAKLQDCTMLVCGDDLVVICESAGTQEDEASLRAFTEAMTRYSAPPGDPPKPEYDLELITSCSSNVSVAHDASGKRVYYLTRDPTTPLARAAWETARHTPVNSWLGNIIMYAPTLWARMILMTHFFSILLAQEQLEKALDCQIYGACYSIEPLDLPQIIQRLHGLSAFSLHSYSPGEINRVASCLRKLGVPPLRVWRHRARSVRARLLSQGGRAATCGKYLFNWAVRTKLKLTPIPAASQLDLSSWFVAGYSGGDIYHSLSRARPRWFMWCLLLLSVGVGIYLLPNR

[1] = molecular target: T1, wild-type RSV L-P RNA polymerase complex (Human respiratory syncytial virus A, UniProt P28887)
T1 construct: made in house; host or cells: insect cells

[2] = molecular target: RSV polymerase QUAD mutant (Human respiratory syncytial virus A, UniProt P28887, A789V/I796V/L795I/M628L); assay: Single nucleotide incorporation by recombinant RSV L-P polymerase, QUAD mutant
[3] = molecular target: human mitochondrial RNA polymerase (Homo sapiens, UniProt O00411); assay: DdRp assay with human mitochondrial RNA polymerase, single turnover
Sequence of human mitochondrial RNA polymerase (O00411 42-1230): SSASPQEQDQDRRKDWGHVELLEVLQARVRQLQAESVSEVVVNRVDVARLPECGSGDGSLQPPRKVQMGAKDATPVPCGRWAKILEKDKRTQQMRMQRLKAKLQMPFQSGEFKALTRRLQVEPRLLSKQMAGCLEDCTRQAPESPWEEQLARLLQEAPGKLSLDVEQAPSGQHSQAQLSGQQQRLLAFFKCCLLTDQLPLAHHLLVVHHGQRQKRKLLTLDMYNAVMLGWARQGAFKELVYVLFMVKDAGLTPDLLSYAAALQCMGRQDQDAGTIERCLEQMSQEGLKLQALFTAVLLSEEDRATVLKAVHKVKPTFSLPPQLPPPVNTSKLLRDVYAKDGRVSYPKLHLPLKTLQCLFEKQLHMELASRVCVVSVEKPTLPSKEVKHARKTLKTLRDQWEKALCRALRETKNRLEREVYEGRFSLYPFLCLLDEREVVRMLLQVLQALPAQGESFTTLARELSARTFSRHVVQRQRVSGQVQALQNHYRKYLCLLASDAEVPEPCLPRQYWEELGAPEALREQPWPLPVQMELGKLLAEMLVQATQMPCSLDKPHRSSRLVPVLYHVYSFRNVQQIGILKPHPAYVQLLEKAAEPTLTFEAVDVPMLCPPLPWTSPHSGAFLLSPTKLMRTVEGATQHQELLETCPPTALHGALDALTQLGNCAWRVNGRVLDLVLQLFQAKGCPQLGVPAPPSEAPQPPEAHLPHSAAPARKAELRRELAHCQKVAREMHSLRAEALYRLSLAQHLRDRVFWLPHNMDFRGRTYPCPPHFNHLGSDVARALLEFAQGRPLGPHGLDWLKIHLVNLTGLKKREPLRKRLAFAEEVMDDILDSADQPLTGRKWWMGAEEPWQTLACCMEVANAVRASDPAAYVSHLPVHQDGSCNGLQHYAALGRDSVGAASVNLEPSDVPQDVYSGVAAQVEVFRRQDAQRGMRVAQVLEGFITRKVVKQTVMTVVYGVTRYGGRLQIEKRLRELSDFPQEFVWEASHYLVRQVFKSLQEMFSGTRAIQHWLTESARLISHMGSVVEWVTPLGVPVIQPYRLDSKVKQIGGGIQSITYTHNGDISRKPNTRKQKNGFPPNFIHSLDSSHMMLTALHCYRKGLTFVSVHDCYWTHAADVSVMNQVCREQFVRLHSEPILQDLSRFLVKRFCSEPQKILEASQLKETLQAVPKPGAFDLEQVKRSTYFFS

Sequence of RSV RNP complex (P03421 whole entry): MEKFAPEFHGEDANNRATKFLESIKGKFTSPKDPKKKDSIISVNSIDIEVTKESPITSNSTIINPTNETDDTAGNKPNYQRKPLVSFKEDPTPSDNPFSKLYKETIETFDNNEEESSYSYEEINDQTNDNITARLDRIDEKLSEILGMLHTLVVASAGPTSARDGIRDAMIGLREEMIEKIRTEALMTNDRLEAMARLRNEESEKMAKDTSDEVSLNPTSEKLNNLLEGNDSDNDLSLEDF
Sequence of RSV RNP complex (P28887 whole entry): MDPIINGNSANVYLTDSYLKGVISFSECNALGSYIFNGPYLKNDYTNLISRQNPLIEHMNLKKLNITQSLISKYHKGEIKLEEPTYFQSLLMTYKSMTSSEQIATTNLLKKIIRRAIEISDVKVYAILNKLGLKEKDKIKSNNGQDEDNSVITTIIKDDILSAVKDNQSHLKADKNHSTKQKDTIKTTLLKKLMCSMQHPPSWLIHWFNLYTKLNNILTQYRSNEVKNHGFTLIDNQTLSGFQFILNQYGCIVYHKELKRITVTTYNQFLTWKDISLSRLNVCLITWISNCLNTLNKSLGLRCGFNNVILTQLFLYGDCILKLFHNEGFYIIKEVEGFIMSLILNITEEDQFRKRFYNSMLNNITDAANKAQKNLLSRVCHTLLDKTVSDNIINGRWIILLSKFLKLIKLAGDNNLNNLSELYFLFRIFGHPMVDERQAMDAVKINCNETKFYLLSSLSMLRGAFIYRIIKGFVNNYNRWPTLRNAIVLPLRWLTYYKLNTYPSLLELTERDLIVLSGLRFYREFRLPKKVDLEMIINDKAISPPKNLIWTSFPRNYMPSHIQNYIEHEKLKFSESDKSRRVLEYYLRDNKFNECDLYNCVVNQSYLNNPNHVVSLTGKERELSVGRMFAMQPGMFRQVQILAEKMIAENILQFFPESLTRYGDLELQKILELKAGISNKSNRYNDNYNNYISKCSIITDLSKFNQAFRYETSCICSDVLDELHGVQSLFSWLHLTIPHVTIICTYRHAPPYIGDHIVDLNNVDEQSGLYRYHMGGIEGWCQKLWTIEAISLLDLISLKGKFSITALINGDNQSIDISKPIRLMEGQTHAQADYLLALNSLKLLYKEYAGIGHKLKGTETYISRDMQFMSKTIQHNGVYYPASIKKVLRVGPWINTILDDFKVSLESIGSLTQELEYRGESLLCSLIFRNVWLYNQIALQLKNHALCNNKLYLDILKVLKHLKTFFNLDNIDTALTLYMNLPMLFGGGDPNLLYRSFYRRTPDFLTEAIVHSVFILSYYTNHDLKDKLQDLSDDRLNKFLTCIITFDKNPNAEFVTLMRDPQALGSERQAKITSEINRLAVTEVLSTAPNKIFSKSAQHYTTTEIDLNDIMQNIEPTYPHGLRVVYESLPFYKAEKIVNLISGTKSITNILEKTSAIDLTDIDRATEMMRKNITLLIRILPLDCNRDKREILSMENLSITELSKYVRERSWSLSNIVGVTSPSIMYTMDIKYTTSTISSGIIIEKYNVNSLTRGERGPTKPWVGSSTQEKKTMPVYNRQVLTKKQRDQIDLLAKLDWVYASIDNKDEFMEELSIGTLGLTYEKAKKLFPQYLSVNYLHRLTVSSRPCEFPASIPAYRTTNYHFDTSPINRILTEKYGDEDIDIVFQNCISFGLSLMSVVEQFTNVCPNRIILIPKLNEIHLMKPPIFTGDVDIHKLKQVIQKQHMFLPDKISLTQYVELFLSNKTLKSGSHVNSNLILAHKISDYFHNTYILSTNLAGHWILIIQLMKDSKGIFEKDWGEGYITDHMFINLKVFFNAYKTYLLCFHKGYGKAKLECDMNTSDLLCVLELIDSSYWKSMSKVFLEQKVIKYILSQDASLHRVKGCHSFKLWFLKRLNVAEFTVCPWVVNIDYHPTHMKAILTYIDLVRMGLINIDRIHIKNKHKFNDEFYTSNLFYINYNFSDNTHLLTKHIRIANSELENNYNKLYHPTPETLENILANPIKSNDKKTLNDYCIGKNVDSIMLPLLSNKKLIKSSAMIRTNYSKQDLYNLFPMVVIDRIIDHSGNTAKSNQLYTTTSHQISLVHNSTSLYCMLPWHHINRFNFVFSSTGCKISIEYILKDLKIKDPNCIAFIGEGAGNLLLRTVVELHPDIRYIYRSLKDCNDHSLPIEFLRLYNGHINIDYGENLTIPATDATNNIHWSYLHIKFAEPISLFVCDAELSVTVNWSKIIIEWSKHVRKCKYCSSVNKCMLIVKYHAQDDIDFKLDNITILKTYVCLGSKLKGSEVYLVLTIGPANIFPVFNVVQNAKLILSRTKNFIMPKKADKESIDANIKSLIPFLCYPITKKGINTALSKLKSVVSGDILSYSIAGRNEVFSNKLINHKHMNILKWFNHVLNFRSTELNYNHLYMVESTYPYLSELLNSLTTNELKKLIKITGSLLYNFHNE

Compound | inhibition of RSV RNP complex (in words) (RSV RNP complex) | IC50 (RSV RNP complex) [µM] | inhibition of HCV polymerase (in words) (HCV polymerase; Fig 5B) | IC50 (HCV polymerase) [µM] | substrate and chain termination profile with recombinant RSV polymerase (in words) ([1]; Fig 5A) | discrimination relative to natural CTP, WT RSV polymerase ([1]; Km CTP analog / Km CTP) [fold] | Km ([1]; primer extension from the +3 position, read-out: Km, single nucleotide incorporation, WT RSV L-P) [µM] | Km ([2]; primer extension from the +3 position, n = 2) [µM] | increase in discrimination, QUAD vs WT (resistance level) ([2]; recombinant L-P enzymes) [fold] | inhibition of HCV polymerase (in words) (HCV polymerase) | recognition as substrate by human mitochondrial RNA polymerase (in words) [3] | substrate and chain termination profile with recombinant RSV polymerase (in words) [1]
4'ClCH2-CTP | dual RSV/HCV polymerase inhibitors | 0.1 to 10 | dual RSV/HCV polymerase inhibitors | 0.1 to 10 | less efficiently recognized | 288±48 | 16 ± 2.7 | 198 ± 18 | 24 | – | – | –
[N-]=[N+]=N[C@]1(COP(=O)(O)OP(=O)(O)OP(=O)(O)O)O[C@@H](n2ccc(N)nc2=O)[C@H](F)[C@@H]1O [2'F-4'N3-CTP] | dual RSV/HCV polymerase inhibitors | 0.1 to 10 | dual RSV/HCV polymerase inhibitors | 0.1 to 10 | both substrates and chain terminators | – | – | – | – | – | – | –
Nc1ccn([C@@H]2O[C@H](COP(=O)(O)OP(=O)(O)OP(=O)(O)O)[C@@H](O)[C@H]2F)c(=O)n1 [2'F-CTP] | – | – | – | – | – | – | – | – | – | did not efficiently inhibit | recognized as a substrate | –
Nc1ccn([C@@H]2O[C@](CCl)(COP(=O)(O)OP(=O)(O)OP(=O)(O)O)[C@@H](O)C2(F)F)c(=O)n1 [2'diF-4'ClCH2-CTP] | – | > 10 | – | > 10 | – | – | – | – | – | – | – | almost completely inactive
[N-]=[N+]=NC1(COP(=O)(O)OP(=O)(O)OP(=O)(O)O)OC(n2ccc(N)nc2=O)C(F)(F)C1O (centres unmarked) [2'diF-4'N3-CTP] | dual RSV/HCV polymerase inhibitors | 0.1 to 10 | dual RSV/HCV polymerase inhibitors | 0.1 to 10 | – | – | – | – | – | – | – | both substrates and chain terminators
Nc1ccn([C@@H]2O[C@H](COP(=O)(O)OP(=O)(O)OP(=O)(O)O)[C@@H](O)C2(F)F)c(=O)n1 [2'diF-CTP, reference compound] | did not efficiently inhibit | > 10 | did not efficiently inhibit | 0.1 to 10 | – | – | – | – | – | – | – | substrates for RSV polymerase, but did not cause immediate chain termination
